We go through one compound from US20260259194A1, “METHOD OF MONITORING MESENCHIMAL STEM CELL (MSC) POTENCY AND IMPROVING MSC DIFFERENTIATION POTENTIAL” (AGENCY FOR SCIENCE, TECHNOLOGY AND RESEARCH, priority 2022, published 2026).

Common to all, as to format: cell-based, human
Assay [1] relates to MSCs. The assay is described as follows: MSC proliferation with HOXA9 inhibitor. The settings on record: compared with DMSO control. The method, then:
(§1) To validate the effects of HOXA9 knockdown on MSCs, effects of HOXA9 specific inhibitor DB818 on MSCs were determined.

Assay [2] deals with MSCs. The assay is described as follows: Three-lineage differentiation of MSCs, staining (oil red, AP, alcian blue). Conditions: compared with DMSO control.
Description: (§2) Differentiation potential is the most important property of MSCs. To determine the effects of HOXA9 knockdown on the differentiation potential of MSCs into three lineages, HOXA9 knockdown and scrambled MSCs were induced into three lineages of differentiation. Compared with scrambled control, HOXA9 knockdown decreased oil red stain for oil droplet in adipogenesis, AP stain for alkaline phosphatase in osteogenesis and alcian blue stain for proteoglycan in chondrogenesis [FIG. 6a]. Stain data were validated by qPCR for lineage specific genes, compared with scrambled control, HOXA9 knockdown decreased adipogenenic genes (CEBPα, PPARγ, LPL and αP2), osteogenic genes (OC, OPN and ALP) and chondrogenic genes (COL2A1, AGC1, SOX9 and COL10A1) [FIG. 6b]. AP assay for quantifying alkaline phosphatase activity was consistent with AP stain, HOXA9 knockdown decreased alkaline phosphatase activity [FIG. 6b].
as §1

For assay [3], the system named is MSCs. The assay is described as follows: qPCR for lineage specific genes in differentiated MSCs. Conditions: compared with control.
Description: as §2, §1

Assay [4] relates to MSCs. The assay is described as follows: CFU-F (colony formation) of MSCs. Conditions: compared with DMSO control. The method, then:
as §1

Regarding `N=C(N)c1ccc(-c2ccc(-c3nc4ccc(C(=N)N)cc4[nH]3)s2)cc1` [DB818], the MSC proliferation result in assay [1] is reported as “abolished”. For the same compound, the “oil red stain for oil droplet in adipogenesis” value in assay [2] (adipogenesis) is listed as “decreased”. In addition, the “alcian blue stain for proteoglycan in chondrogenesis” value in assay [2] (chondrogenesis) is on record as “decreased”. Moreover, the “AP stain for alkaline phosphatase in osteogenesis” value in assay [2] (osteogenesis) is “decreased”. Also, in assay [3], the “adipogenenic genes (CEBPα, PPARγ, LPL and αP2)” value was “decreased”; the “chondrogenic genes (COL2A1, AGC1, SOX9 and COL10A1)” value was “decreased”; the “osteogenic genes (RUNX2 and COL1A1)” value is on record as “decreased”. For the same compound, the CFU-F result in assay [4] is given as “abolished”.
